Assay results from US6642249B2, “Immunomodulating compounds” (Active Biotech AB, priority 2001, dated 2003).

Target: T1, CD28-CD80 interactions (Homo sapiens, UniProt P33681)
T1 sequence (P33681 35-242 limits assumed): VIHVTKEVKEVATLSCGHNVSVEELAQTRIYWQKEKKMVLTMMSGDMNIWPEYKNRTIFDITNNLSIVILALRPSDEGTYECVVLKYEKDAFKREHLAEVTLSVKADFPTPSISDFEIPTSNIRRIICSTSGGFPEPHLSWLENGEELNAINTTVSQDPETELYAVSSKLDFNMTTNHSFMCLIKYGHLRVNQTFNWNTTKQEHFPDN
Test: Time resolved fluorescence competition assay: CD28-CD80 interactions
Format: binding
Conditions: inhibition of CD28-mFc (5 nM) / CD80FabC215 (10 nM) interaction; representative results
Procedure: Time resolved fluorescence competition assay protocol: CD28-CD80 interactions.
50 mM Tris-HCl, 150 mM NaCl, 0.05% Tween 20, pH 7.8, containing 0.1% BSA (w/v), added prior to use.
The substances to be tested for inhibitory effects were serially diluted from stock concentrations of 20 mM (DMSO) in assay buffer to preparation concentrations of 200, 100, 50 and 25 μM. The final concentration in the wells was 100, 50, 25 and 12.5 μM, respectively. The maximum final DMSO concentration tolerated in the assay was 0.5%. Where appropriate, the dilution series was adjusted and extended to measure the IC50.
CTLA4-hIg(Fc) was diluted to working concentrations of 20 nM and 2 nM, resulting in final concentrations of 10 nM and 1 nM in the well. At these concentrations (10 nM and 1 nM) approximately 90% and 30% inhibition levels were observed.
Preparation of Reagent Mixture
To a tube containing 1.1 ml assay buffer, the following reagents were added:
900 μl of the above reagent mixture was transferred to a new tube. CD80FabC215 was added at a preparation concentration of 20 nM, (i.e. 4.3 μl from 0.4 mg/ml stock). The final concentration in the well was 10 nM.
To the remaining 200 μl reagent mixture C215Fab was added as control for non-specific binding (NSB). 0.5 μl from a 0.36 mg/ml stock gave a preparation concentration of 20 nM and a final concentration in the well of 10 nM.
To a black, half area, 96-well microtiter plate, the C215Fab containing reagent mixture was transferred to column 12, row E-H (4 wells), 10 μl/well with a single channel electronic pipette. 10 μl/well of the CD80FabC215 containing reagent mixture was transferred with a single channel electronic pipette to all other wells on the plate
B0: Assay buffer, 10 μl/well was pipetted to the CD80FabC215 containing wells in column 12, row A-D (4 wells).
NSB: Assay buffer, 10 μl/well was pipetted to the C215Fab containing wells in column 12, row E-H (4 wells).
CTLA4-hIg(Fc), 10 μl/well of 20 and 2 nM (final conc 10 and 1 nM) was pipetted in duplicate into well 11 E-F and 11 G-H.
Sample dilution series: 10 μl/well in duplicate to the remaining wells.
The plate was covered with a plastic lid and incubated in the dark: Initially for 1 h on a shaker platform at room temperature (RTS), stationary at +4° C. overnight, and finally 1 h RTS before reading.
The plate was measured on a Victor 1420 Multilabel Counter using the LANCE protocol (#2) measuring emission at dual wavelengths, from both APC (665 nm) and Europium (615 nm). First measurement: Excitation 340 nm, emission 665 nm, delay 50 μs, window time 200 μs. Second measurement: Excitation 340 nm, emission 615 nm, delay 50 μs, window time 200 μs.
The fluorescence signal ratio 1000* 665 nm/615 nm, from which the percentage inhibition was calculated, was determined. A logit b plot (Logit b=LN (% Bound/(100% −% Bound, plotted against Log conc) was performed from which IC50 was measured.

Row | Structure (SMILES) | IC50
1 | O=C(O)CCc1ccc(-n2nc3c4ccccc4[nH]cc-3c2=O)cc1 [[4-(3-Oxo-3,5-dihydro-pyrazolo[4,3-c]quinolin-2-yl)-phenyl]-propionic Acid] | 1600 nM
2 | O=C(O)CCC(=O)Nc1ccc(-n2nc3c4ccccc4[nH]cc-3c2=O)cc1 [N-[4-(3-Oxo-3,5-dihydro-pyrazolo[4,3-c]quinolin-2-yl)-phenyl]-succinamic Acid] | 600 nM
3 | O=C(O)c1ccc(-n2nc3c4ccccc4scc-3c2=O)cc1 [4-(3-Oxo-3H-thiochromeno[4,3-c]pyrazol-2-yl)benzoic Acid] | 13500 nM
4 | O=C(O)c1cccc(-n2nc3c4ccccc4[nH]cc-3c2=O)c1 [3-(3-Oxo-3,5-dihydro-pyrazolo[4,3-c]quinolin-2-yl)-benzoic Acid] | 880 nM
5 | O=C(O)CNC(=O)c1ccc(-n2nc3c4ccccc4[nH]cc-3c2=O)cc1 [2-[4-(3-Oxo-3,5-dihydro-pyrazolo[4,3-c]quinolin-2-yl)-benzoylamino]-2-acetic Acid] | 3900 nM

Stronger by IC50, values ahead:

Row | IC50 | Structure (SMILES)
6 | 270 nM | O=C(O)c1ccc(-n2nc3c4ccccc4[nH]cc-3c2=O)cc1Cl [2-Chloro-4-(3-oxo-3,5-dihydro-pyrazolo[4,3-c]quinolin-2-yl)-benzoic Acid]
7 | 480 nM | O=C(O)c1ccc(-n2nc3c4ccccc4[nH]cc-3c2=O)cc1 [4-(3-oxo-3,5-dihydro-pyrazolo[4,3-c]quinolin-2-yl)-benzoic Acid]
